Measured values reported in ChEMBL document CHEMBL5537115, “New broad-spectrum and potent antibacterial agents with dual-targeting mechanism: Promoting FtsZ polymerization and disrupting bacterial membranes” (Eur J Med Chem, 2024).
≈ marks a conversion by molar mass, not a printed value.

Assays:
Format in all cases: functional
Streptococcus pyogenes [1] = test: Antibacterial activity against erythromycin-resistant Streptococcus pyogenes 2 clinical isolate assessed as bacterial growth inhibition incubated for 20 hrs by CLSI based broth microdilution method
Escherichia coli [2] = test: Antibacterial activity against penicillin-susceptible Escherichia coli ATCC25922 assessed as bacterial growth inhibition incubated for 20 hrs by CLSI based broth microdilution method
Staphylococcus aureus [3] = test: Antibacterial activity against penicillin-resistant Staphylococcus aureus ATCC31007 assessed as bacterial growth inhibition incubated for 20 hrs by CLSI based broth microdilution method
Enterococcus faecalis [4] = test: Antibacterial activity against vancomycin-susceptible Enterococcus faecalis ATCC29212 assessed as bacterial growth inhibition incubated for 20 hrs by CLSI based broth microdilution method
Acinetobacter baumannii = test: Antibacterial activity against Acinetobacter baumannii ATCC19606 assessed as bacterial growth inhibition incubated for 20 hrs by CLSI based broth microdilution method
Escherichia coli [5] = test: Antibacterial activity against wild-type Escherichia coli BW25113 assessed as bacterial growth inhibition incubated for 20 hrs by CLSI based broth microdilution method
Staphylococcus aureus [6] = test: Antibacterial activity against methicillin-resistant Staphylococcus aureus ATCC43300 assessed as bacterial growth inhibition incubated for 20 hrs by CLSI based broth microdilution method
Enterococcus faecalis [7] = test: Antibacterial activity against vancomycin-resistant Enterococcus faecalis ATCC51299 assessed as bacterial growth inhibition incubated for 20 hrs by CLSI based broth microdilution method
Enterococcus faecium [8] = test: Antibacterial activity against vancomycin-resistant Enterococcus faecium ATCC51559 assessed as bacterial growth inhibition incubated for 20 hrs by CLSI based broth microdilution method
Bacillus subtilis = test: Antibacterial activity against penicillin-susceptible Bacillus subtilis ATCC9372 assessed as bacterial growth inhibition incubated for 20 hrs by CLSI based broth microdilution method
Bacillus pumilus = test: Antibacterial activity against penicillin-susceptible Bacillus pumilus CMCC63202 assessed as bacterial growth inhibition incubated for 20 hrs by CLSI based broth microdilution method
Staphylococcus aureus [9] = test: Antibacterial activity against Staphylococcus aureus clinical isolate assessed as bacterial growth inhibition incubated for 20 hrs by CLSI based broth microdilution method
Enterococcus faecium [10] = test: Antibacterial activity against vancomycin-susceptible Enterococcus faecium ATCC19434 assessed as bacterial growth inhibition incubated for 20 hrs by CLSI based broth microdilution method
[11] = test system: Staphylococcus epidermidis; test: Antibacterial activity against penicillin-resistant Staphylococcus epidermidis clinical isolate assessed as bacterial growth inhibition incubated for 20 hrs by CLSI based broth microdilution method
Klebsiella pneumoniae = test: Antibacterial activity against Klebsiella pneumoniae ATCC BAA-1902 assessed as bacterial growth inhibition incubated for 20 hrs by CLSI based broth microdilution method
Staphylococcus aureus [12] = test: Antibacterial activity against erythromycin-susceptible Staphylococcus aureus ATCC25923 assessed as bacterial growth inhibition incubated for 20 hrs by CLSI based broth microdilution method
Streptococcus pyogenes [13] = test: Antibacterial activity against erythromycin-susceptible Streptococcus pyogenes 1 assessed as bacterial growth inhibition incubated for 20 hrs by CLSI based broth microdilution method

For `CC1(C)S[C@@H]2[C@H](NC(=O)[C@H](NC(=O)N3CCN(S(C)(=O)=O)C3=O)c3ccccc3)C(=O)N2[C@H]1C(=O)O` [MEZLOCILLIN], the MIC (Streptococcus pyogenes [1]) was < 0.062 mg/L, the MIC (Escherichia coli [2]) was 1 mg/L (≈ 1.85 µM) and the MIC (Staphylococcus aureus [3]) was > 64 mg/L. The MIC (Enterococcus faecalis [4]) was 2 mg/L (≈ 3.71 µM), the MIC (Acinetobacter baumannii) was 64 mg/L (≈ 119 µM) and the MIC (Escherichia coli [5]) was 1 mg/L (≈ 1.85 µM). For the same compound, the MIC (Staphylococcus aureus [6]) was 16 mg/L (≈ 29.7 µM), the MIC (Enterococcus faecalis [7]) was > 64 mg/L and the MIC (Enterococcus faecium [8]) was > 64 mg/L. For the same compound, the MIC (Bacillus subtilis) was 4 mg/L (≈ 7.41 µM), the MIC (Bacillus pumilus) was 2 mg/L (≈ 3.71 µM) and the MIC (Staphylococcus aureus [9]) was 32 mg/L (≈ 59.3 µM). For the same compound, the MIC (Enterococcus faecium [10]) was 16 mg/L (≈ 29.7 µM), the MIC [11] was > 64 mg/L and the MIC (Klebsiella pneumoniae) was > 64 mg/L. For the same compound, the MIC (Staphylococcus aureus [12]) was 1 mg/L (≈ 1.85 µM) and the MIC (Streptococcus pyogenes [13]) was < 0.062 mg/L.
For `Cc1ccc(/C=C/c2cc(-c3ccccc3)c[n+](C)c2-c2ccccc2)cc1.[I-]`, the MIC (Streptococcus pyogenes [1]) was 4 mg/L, the MIC (Escherichia coli [2]) was > 64 mg/L and the MIC (Staphylococcus aureus [3]) was 32 mg/L. The MIC (Enterococcus faecalis [4]) was 16 mg/L, the MIC (Acinetobacter baumannii) was 32 mg/L and the MIC (Escherichia coli [5]) was > 64 mg/L. It also gave an MIC (Staphylococcus aureus [6]) of 4 mg/L, an MIC (Enterococcus faecalis [7]) of 32 mg/L and an MIC (Enterococcus faecium [8]) of 16 mg/L. The MIC (Bacillus subtilis) was 2 mg/L, the MIC (Bacillus pumilus) was 16 mg/L and the MIC (Staphylococcus aureus [9]) was 2 mg/L. For the same compound, the MIC (Enterococcus faecium [10]) was 32 mg/L, the MIC [11] was 32 mg/L and the MIC (Klebsiella pneumoniae) was > 64 mg/L. The MIC (Staphylococcus aureus [12]) was 1 mg/L and the MIC (Streptococcus pyogenes [13]) was 4 mg/L.
In the case of `C[n+]1cc(-c2ccccc2)c(/C=C/c2ccc(N3CCCCC3)cc2)cc1-c1ccc2ccccc2c1.[I-]`, the MIC (Streptococcus pyogenes [1]) is reported as 2 mg/L, the MIC (Escherichia coli [2]) is reported as 64 mg/L and the MIC (Staphylococcus aureus [3]) is reported as 2 mg/L. The MIC (Enterococcus faecalis [4]) was 1 mg/L, the MIC (Acinetobacter baumannii) was 2 mg/L and the MIC (Escherichia coli [5]) was 4 mg/L. For the same compound, the MIC (Staphylococcus aureus [6]) was 1 mg/L, the MIC (Enterococcus faecalis [7]) was 2 mg/L and the MIC (Enterococcus faecium [8]) was 2 mg/L. The MIC (Bacillus subtilis) was 1 mg/L, the MIC (Bacillus pumilus) was 0.5 mg/L and the MIC (Staphylococcus aureus [9]) was 0.5 mg/L. For the same compound, the MIC (Enterococcus faecium [10]) was 1 mg/L, the MIC [11] was 2 mg/L and the MIC (Klebsiella pneumoniae) was 16 mg/L. For the same compound, the MIC (Staphylococcus aureus [12]) was 0.5 mg/L and the MIC (Streptococcus pyogenes [13]) was 2 mg/L.
In the case of `CCc1ccc(/C=C/c2cc(-c3ccccc3)c[n+](C)c2-c2ccccc2)cc1.[I-]`, the MIC (Streptococcus pyogenes [1]) is reported as 8 mg/L, the MIC (Escherichia coli [2]) is reported as > 64 mg/L and the MIC (Staphylococcus aureus [3]) is reported as 4 mg/L. For the same compound, the MIC (Enterococcus faecalis [4]) was 16 mg/L, the MIC (Acinetobacter baumannii) was 32 mg/L and the MIC (Escherichia coli [5]) was > 64 mg/L. It also gave an MIC (Staphylococcus aureus [6]) of 8 mg/L, an MIC (Enterococcus faecalis [7]) of 16 mg/L and an MIC (Enterococcus faecium [8]) of 16 mg/L. It also gave an MIC (Bacillus subtilis) of 4 mg/L, an MIC (Bacillus pumilus) of 8 mg/L and an MIC (Staphylococcus aureus [9]) of 2 mg/L. For the same compound, the MIC (Enterococcus faecium [10]) was 16 mg/L, the MIC [11] was 16 mg/L and the MIC (Klebsiella pneumoniae) was 16 mg/L. It also gave an MIC (Staphylococcus aureus [12]) of 1 mg/L and an MIC (Streptococcus pyogenes [13]) of 4 mg/L.
Compound `Cc1ccccc1-c1c[n+](C)c(-c2ccc(C(C)(C)C)cc2)cc1/C=C/c1ccc(F)cc1.[I-]` has an MIC (Streptococcus pyogenes [1]) of 2 mg/L, an MIC (Escherichia coli [2]) of 8 mg/L and an MIC (Staphylococcus aureus [3]) of 1 mg/L. It also gave an MIC (Enterococcus faecalis [4]) of 0.5 mg/L, an MIC (Acinetobacter baumannii) of 2 mg/L and an MIC (Escherichia coli [5]) of 4 mg/L. For the same compound, the MIC (Staphylococcus aureus [6]) was 0.5 mg/L, the MIC (Enterococcus faecalis [7]) was 2 mg/L and the MIC (Enterococcus faecium [8]) was 1 mg/L. The MIC (Bacillus subtilis) was 0.5 mg/L, the MIC (Bacillus pumilus) was 0.5 mg/L and the MIC (Staphylococcus aureus [9]) was 0.25 mg/L. It also gave an MIC (Enterococcus faecium [10]) of 1 mg/L, an MIC [11] of 1 mg/L and an MIC (Klebsiella pneumoniae) of 8 mg/L. It also gave an MIC (Staphylococcus aureus [12]) of 1 mg/L and an MIC (Streptococcus pyogenes [13]) of 2 mg/L.
With `C[n+]1cc(-c2ccccc2)cc(/C=C/c2ccc(Br)cc2)c1-c1ccccc1.[I-]` the MIC (Streptococcus pyogenes [1]) was 4 mg/L, the MIC (Escherichia coli [2]) was 64 mg/L and the MIC (Staphylococcus aureus [3]) was 16 mg/L. For the same compound, the MIC (Enterococcus faecalis [4]) was 16 mg/L, the MIC (Acinetobacter baumannii) was 8 mg/L and the MIC (Escherichia coli [5]) was > 64 mg/L. The MIC (Staphylococcus aureus [6]) was 4 mg/L, the MIC (Enterococcus faecalis [7]) was 16 mg/L and the MIC (Enterococcus faecium [8]) was 16 mg/L. For the same compound, the MIC (Bacillus subtilis) was 2 mg/L, the MIC (Bacillus pumilus) was 8 mg/L and the MIC (Staphylococcus aureus [9]) was 2 mg/L. It also gave an MIC (Enterococcus faecium [10]) of 16 mg/L, an MIC [11] of 8 mg/L and an MIC (Klebsiella pneumoniae) of 64 mg/L. For the same compound, the MIC (Staphylococcus aureus [12]) was 1 mg/L and the MIC (Streptococcus pyogenes [13]) was 4 mg/L.
In the case of `C[n+]1cc(-c2ccccc2)c(/C=C/c2ccc(Cl)c(Cl)c2)cc1-c1ccc(C(C)(C)C)cc1.[I-]`, the MIC (Streptococcus pyogenes [1]) is reported as 4 mg/L, the MIC (Escherichia coli [2]) is reported as > 64 mg/L and the MIC (Staphylococcus aureus [3]) is reported as 2 mg/L. For the same compound, the MIC (Enterococcus faecalis [4]) was 2 mg/L, the MIC (Acinetobacter baumannii) was 4 mg/L and the MIC (Escherichia coli [5]) was 8 mg/L. For the same compound, the MIC (Staphylococcus aureus [6]) was 1 mg/L, the MIC (Enterococcus faecalis [7]) was 2 mg/L and the MIC (Enterococcus faecium [8]) was 1 mg/L. It also gave an MIC (Bacillus subtilis) of 2 mg/L, an MIC (Bacillus pumilus) of 2 mg/L and an MIC (Staphylococcus aureus [9]) of 1 mg/L. The MIC (Enterococcus faecium [10]) was 1 mg/L, the MIC [11] was 2 mg/L and the MIC (Klebsiella pneumoniae) was > 64 mg/L. The MIC (Staphylococcus aureus [12]) was 2 mg/L and the MIC (Streptococcus pyogenes [13]) was 8 mg/L.
For `COc1ccc(/C=C/c2cc(-c3ccccc3)c[n+](C)c2-c2ccccc2)cc1.[I-]`, the MIC (Streptococcus pyogenes [1]) was 8 mg/L, the MIC (Escherichia coli [2]) was > 64 mg/L and the MIC (Staphylococcus aureus [3]) was 64 mg/L. The MIC (Enterococcus faecalis [4]) was 32 mg/L, the MIC (Acinetobacter baumannii) was 32 mg/L and the MIC (Escherichia coli [5]) was > 64 mg/L. The MIC (Staphylococcus aureus [6]) was 16 mg/L, the MIC (Enterococcus faecalis [7]) was 64 mg/L and the MIC (Enterococcus faecium [8]) was 64 mg/L. The MIC (Bacillus subtilis) was 8 mg/L, the MIC (Bacillus pumilus) was 32 mg/L and the MIC (Staphylococcus aureus [9]) was 4 mg/L. For the same compound, the MIC (Enterococcus faecium [10]) was 64 mg/L, the MIC [11] was 2 mg/L and the MIC (Klebsiella pneumoniae) was > 64 mg/L. It also gave an MIC (Staphylococcus aureus [12]) of 2 mg/L and an MIC (Streptococcus pyogenes [13]) of 4 mg/L.
`CC(=O)Nc1ccc(/C=C/c2cc(-c3ccc4ccccc4c3)[n+](C)cc2-c2ccccc2)cc1.[I-]` was tested, and the MIC (Escherichia coli [2]) was > 64 mg/L, the MIC (Enterococcus faecalis [4]) was 16 mg/L and the MIC (Acinetobacter baumannii) was 32 mg/L. For the same compound, the MIC (Escherichia coli [5]) was > 64 mg/L, the MIC (Bacillus subtilis) was 1 mg/L and the MIC (Bacillus pumilus) was 16 mg/L. For the same compound, the MIC (Staphylococcus aureus [9]) was 1 mg/L, the MIC (Enterococcus faecium [10]) was 32 mg/L and the MIC (Klebsiella pneumoniae) was > 64 mg/L. For the same compound, the MIC (Staphylococcus aureus [12]) was 0.5 mg/L.
